Patent US10624947B2, “Bactericidal peptides and uses thereof” (INDIANA UNIVERSITY RESEARCH AND TECHNOLOGY CORPORATION, priority 2016, dated 2020)
Converted amounts (≈) assume the structure as drawn. “Also recorded” adds a separate entry of the source. Where two headings read alike, the source gives them in different places. Square brackets hold non-standard residues; d marks the D form. Peptide text beside a SMILES is read from it. AEEA = NCCOCCOCC(=O)O

Columns and labels:
[1] = Toxicity of peptides injected intraperitoneally; format: in vivo, mice; conditions: intraperitoneal, 10 or 20 μM
Description: FIGS. 23A, B show the efficacy and toxicity of modified peptides in mice. […] The survival of mice injected intraperitoneally with iron dextran at 48 h after intraperitoneal injection of 10 or 20 μM of the modified peptides. […] Vibrio vulnificus (V. v.) strain CMCP6 was injected at 1×10^6 CFU. […] All mice receive iron dextran by intraperitoneal injection. Where indicated, 1 h later 10^6 bacterial CFU in 100 μL was injected into the peritoneum (opposite side). 1 h later, 100 μL of the peptide at the indicated concentration was administered on the same side as the bacterial injection.
Since B22a was effective in preventing infection of V. vulnificus in a surgical incision model, we tested it for efficacy for systemic infection in a mouse septicemia model (1). Groups of mice (strain CD-1) were first injected with […], followed 1 h later with an intraperitoneal injection of 1×10e6 colony forming units of V. vulnificus strain […]. The B22a was then injected intraperitoneally 1 h later and morbidity was monitored hourly for two days.
PB22N and other modified peptides were tested in a septicemic mouse model. V. vulnificus is a highly-pathogenic bacterium, causing septicemia and high mortality. In mice injected intraperitoneally with V. vulnificus, the majority of the mice had to be euthanized within 24 h due to severe symptoms associated with septicemia (FIG. 23B). […] PB22N was effective in preventing mice from succumbing to systemic infection by the highly virulent V. vulnificus.

[2] = tested on: Klebsiella pneumoniae; assay: microbe, parasite or virus in culture
Description: (§1) Antimicrobial activity was determined using the broth microdilution method based on the general recommendation of the Clinical and Laboratory Standards Institute. Bacteria were grown in Mueller-Hinton broth at 37° C. until OD625 reached 0.06, and then bacteria were further diluted into 1:20 for later use. […] 10 microliter (μL) of diluted bacteria was mixed with 90 μL of peptides at varying concentrations followed by incubation at 37° C. for 16-18 hours. The MIC is the lowest peptide concentration at which visible growth was inhibited. The MIC value was determined at least twice in independent experiments and typically in 3-4 assays.

[3] = tested on: Pseudomonas aeruginosa; format: cell-based
Description: as §1

[4] = tested on: human red blood cells (hRBCs); assay: Hemolytic activity; format: cell-based
Description: The amount of hemoglobin released was measured by the absorbance at 435 nm after a 60-minute incubation with the antimicrobial peptide. The percentage of hRBC lysis was normalized to the amount hemoglobin released by the suspension of the hRBCs in deionized water. The background amount of hRBC lysis was determined by adding phosphate buffered saline (PBS) at the same volume as 8 μM of the peptide to the hRBC for 1 h.
The hemolytic activities of peptides were determined using human red blood cells (hRBCs) (Innovative Research, Inc., cat. # IPLA-WB3-18103). The hRBCs were washed three times with PBS and then resuspended in PBS. The hRBCs solution was mixed with serial dilutions of the peptides in PBS buffer. The reaction mixtures were incubated for 45 min at 37° C. After centrifugation at 94×g for 10 min, the intact hRBCs were pelleted and the hemoglobin released from hRBCs was monitored by measuring the absorbance of the supernatant at 415 nm. The background level of absorbance was measured in sampled incubated with only PBS buffer. 100% hemolysis was determined in sampled incubated with water. The percentage of hemolysis was calculated according to the following equation. Percentage of hemolysis=[(Asample−Ablank)/Awater]*100%
Mammalian cells are thought to be less susceptible to cathelicidin peptides in part because the composition of their membrane will be less likely to interact with the peptides. To address this directly, human red blood cells (hRBCs) were tested for lysis after a 45-minute incubation with the peptides. The total lysis of hRBCs was determined by adding water to the cells. The amount of lysis during handling was determined by the addition of phosphate buffered saline at the same volume as that of the peptides.

[5] = tested on: Cultured human cells; assay: MTT cytotoxicity assay; format: cell-based; conditions: cultured human cells, compared to controls
[6] = tested on: Enterobacter cloacae
Description: as §1

[7] = tested on: Escherichia coli
Description: as §1

[8] = tested on: Klebsiella pneumoniae
Description: as §1

[9] = tested on: Serratia marcescens
Description: as §1

[10] = Table 8, clinical isolate 88 (NDM1+)
[11] = Table 8, clinical isolate 262 (NDM1+)
[12] = Table 11, clinical isolate 88 (NDM1+)
[13] = Table 11, clinical isolate 262 (NDM1+)
[14] = Table 11, clinical isolate 110113

For `CC[C@H](C)[C@H](NC(=O)[C@@H](NC(=O)[C@@H]1CCCN1C(=O)[C@H](CO)NC(=O)[C@H](CC(C)C)NC(=O)[C@H](CCCCN)NC(=O)[C@H](CCCCN)NC(=O)[C@H](Cc1ccccc1)NC(=O)[C@H](CC(C)C)NC(=O)[C@H](CCCCN)NC(=O)[C@H](CCCCN)NC(=O)[C@H](CC(C)C)NC(=O)[C@H](CCCCN)NC(=O)[C@H](CCCCN)NC(=O)[C@H](CCCNC(=N)N)NC(=O)[C@H](Cc1ccccc1)NC(C)=O)C(C)C)C(=O)N1CCC[C@H]1C(=O)N[C@@H](CC(C)C)C(=O)N[C@@H](CC(C)C)C(=O)N[C@@H](CCCCN)C(=O)N[C@@H](CC(C)C)C(=O)NCC(=O)NCCOCCOCC(=O)O` [AB22P] (Ac-FRKKLKKLFKKLSPVIPLLKLG[AEEA]-OH), the “Toxicity signs in mice injected with peptide” value [1] was “no obvious symptoms were observed; also recorded: no obvious effects on mice behavior or appearance”.
For `C[C@@H](O)[C@H]1C(=O)N2C(C(=O)O)=C(SCCN=CN)C[C@H]12` [Imipenem], the MIC [2, 10] was 16 mg/L (≈ 53.4 µM), the MIC ([2]; Table 8, clinical isolate 92) was > 64 mg/L and the MIC ([2]; Table 8, clinical isolate 109) was 16 mg/L (≈ 53.4 µM). It also gave an MIC ([2]; Table 8, clinical isolate 113) of 16 mg/L (≈ 53.4 µM), an MIC ([2]; Table 8, clinical isolate 116) of 8 mg/L (≈ 26.7 µM) and an MIC ([2]; Table 8, clinical isolate 118) of 32 mg/L (≈ 107 µM). The MIC ([2]; Table 8, clinical isolate 136) was 8 mg/L (≈ 26.7 µM), the MIC ([2]; Table 8, clinical isolate 256) was ≥ 16 mg/L and the MIC [2, 11] was > 16 mg/L. For the same compound, the MIC ([2]; Table 8, clinical isolate 265) was 48 mg/L (≈ 160 µM), the MIC ([2]; Table 8, clinical isolate 280) was ≥ 16 mg/L and the MIC ([2]; Table 8, clinical isolate 281) was 4 mg/L (≈ 13.4 µM). For the same compound, the MIC ([2]; Table 8, clinical isolate 284) was 8 mg/L (≈ 26.7 µM), the MIC ([2]; Table 8, clinical isolate 286) was ≥ 16 mg/L and the MIC ([2]; Table 8, clinical isolate 330) was 4 mg/L (≈ 13.4 µM). For the same compound, the MIC ([2]; Table 8, clinical isolate 361) was > 16 mg/L, the MIC [2, 12] was 16 mg/L (≈ 53.4 µM) and the MIC ([2]; Table 11, clinical isolate 92) was > 64 mg/L. For the same compound, the MIC ([2]; Table 11, clinical isolate 116) was 8 mg/L (≈ 26.7 µM), the MIC ([2]; Table 11, clinical isolate 118) was 32 mg/L (≈ 107 µM) and the MIC ([2]; Table 11, clinical isolate 136) was 8 mg/L (≈ 26.7 µM). The MIC ([2]; Table 11, clinical isolate 256) was ≥ 16 mg/L, the MIC [2, 13] was > 16 mg/L and the MIC ([2]; Table 11, clinical isolate 265) was 48 mg/L (≈ 160 µM). For the same compound, the MIC ([2]; Table 11, clinical isolate 280) was ≥ 16 mg/L, the MIC ([2]; Table 11, clinical isolate 281) was 4 mg/L (≈ 13.4 µM) and the MIC ([2]; Table 11, clinical isolate 284) was 8 mg/L (≈ 26.7 µM). For the same compound, the MIC ([2]; Table 11, clinical isolate 286) was ≥ 16 mg/L, the MIC ([2]; Table 11, clinical isolate 330) was 4 mg/L (≈ 13.4 µM) and the MIC ([2]; Table 11, clinical isolate 361) was > 16 mg/L. The MIC ([2]; Table 11, clinical isolate 10916) was > 16 mg/L and the MIC [2, 14] was 16 mg/L (≈ 53.4 µM).
For `CC[C@H](C)[C@H](NC(=O)[C@H](CCCCN)NC(=O)[C@H](CCC(=O)O)NC(=O)[C@H](CCCCN)NC(=O)[C@H](CO)NC(=O)[C@H](CCCCN)NC(=O)[C@H](CCCNC(=N)N)NC(=O)[C@H](Cc1ccccc1)NC(=O)[C@H](Cc1ccccc1)NC(=O)[C@H](CC(=O)O)NC(=O)CNC(=O)[C@H](CC(C)C)NC(=O)[C@@H](N)CC(C)C)C(=O)NCC(=O)N[C@@H](CCCCN)C(=O)N[C@@H](CCC(=O)O)C(=O)N[C@@H](Cc1ccccc1)C(=O)N[C@@H](CCCCN)C(=O)N[C@@H](CCCNC(=N)N)C(=O)N[C@H](C(=O)N[C@H](C(=O)N[C@@H](CCC(N)=O)C(=O)N[C@@H](CCCNC(=N)N)C(=O)N[C@H](C(=O)N[C@@H](CCCCN)C(=O)N[C@@H](CC(=O)O)C(=O)N[C@@H](Cc1ccccc1)C(=O)N[C@@H](CC(C)C)C(=O)N[C@@H](CCCNC(=N)N)C(=O)N[C@@H](CC(N)=O)C(=O)N[C@@H](CC(C)C)C(=O)N[C@H](C(=O)N1CCC[C@H]1C(=O)N[C@@H](CCCNC(=N)N)C(=O)N[C@H](C(=O)N[C@@H](CCC(=O)O)C(=O)N[C@@H](CO)C(=O)O)[C@@H](C)O)C(C)C)[C@@H](C)CC)C(C)C)[C@@H](C)CC` [LL-37, reference compound], the Minimal inhibitory concentration ([3]; P. aeruginosa ATCC 27853) was >32 mg/L, the Minimal inhibitory concentration ([3]; Table 10, Pseudomonas aeruginosa ATCC 27853) was >32 µM and the Minimal inhibitory concentration ([3]; Table 10, Pseudomonas aeruginosa OC4083) was >32 µM. The Minimal inhibitory concentration ([3]; Table 10, Pseudomonas aeruginosa PAO1) was 32 µM, the Minimal inhibitory concentration ([3]; Table 10, Pseudomonas aeruginosa PAO1 oprD) was 32 µM and the “Hemoglobin release from hRBCs” value ([4]; 2 micromolar, 45-minute incubation (FIG. 17)) was “a low abundance of hemoglobin outside of the cells was detected”. For the same compound, the hRBC lysis ([4]; 2 to 8 μM (FIG. 15)) was “lysed hRBC when present at 4 or 8 μM”, the “hRBC lysis with increasing concentration” value ([4]; LL-37 beyond 10 micromolar, B22a up to 60 micromolar (FIG. 18)) was “significantly higher hRBC lysis” and the “Cytotoxicity, MTT assay” value [5] was “no increased cytotoxicity compared to the controls”. For the same compound, the Minimal inhibitory concentration ([6]; E. cloacae 4092) was >32 mg/L, the Minimal inhibitory concentration ([6]; Table 10, Enterobacter cloacae OC4080) was 32 µM and the Minimal inhibitory concentration ([6]; Table 10, Enterobacter cloacae OC4092) was >32 µM. For the same compound, the Minimal inhibitory concentration ([7]; E. coli 4075) was >32 mg/L, the Minimal inhibitory concentration ([7]; E. coli J53 AzideR) was >32 mg/L and the Minimal inhibitory concentration ([7]; E. coli MC4100) was >32 mg/L. For the same compound, the Minimal inhibitory concentration ([7]; Table 10, Escherichia coli ATCC 25922) was 32 µM, the Minimal inhibitory concentration ([7]; Table 10, Escherichia coli ATCC 35218) was 32 µM and the Minimal inhibitory concentration ([7]; Table 10, Escherichia coli IU342) was 32 µM. For the same compound, the Minimal inhibitory concentration ([7]; Table 10, Escherichia coli J53 AzideR) was >32 µM, the Minimal inhibitory concentration ([7]; Table 10, Escherichia coli MC4100a) was >32 µM and the Minimal inhibitory concentration ([7]; Table 10, Escherichia coli OC4075) was >32 µM. The Minimal inhibitory concentration ([7]; Table 10, Escherichia coli UT189) was >32 µM, the Minimal inhibitory concentration ([8]; K. pneumoniae 4110) was >32 mg/L and the Minimal inhibitory concentration ([8]; K. pneumoniae ATCC 700603) was >32 mg/L. The Minimal inhibitory concentration ([8]; K. pneumoniae C2) was >32 mg/L, the Minimal inhibitory concentration ([8]; K. pneumoniae OC8893) was >32 mg/L and the Minimal inhibitory concentration ([8]; Table 10, Klebsiella pneumonia ATCC 700603) was >32 µM. For the same compound, the Minimal inhibitory concentration ([8]; Table 10, Klebsiella pneumonia C2) was >32 µM, the Minimal inhibitory concentration ([8]; Table 10, Klebsiella pneumonia OC4110) was >32 µM and the Minimal inhibitory concentration ([8]; Table 10, Klebsiella pneumonia OC8893) was >32 µM. The Minimal inhibitory concentration ([9]; S. marcescens 4101) was >32 mg/L, the Minimal inhibitory concentration ([9]; S. marcescens 4104) was >32 mg/L and the Minimal inhibitory concentration ([9]; S. marcescens 7553) was >32 mg/L. For the same compound, the Minimal inhibitory concentration ([9]; Table 10, Serratia marcescens 4075A) was >32 µM, the Minimal inhibitory concentration ([9]; Table 10, Serratia marcescens 4101) was >32 µM and the Minimal inhibitory concentration ([9]; Table 10, Serratia marcescens 4104) was >32 µM.
In the case of `C[C@@H](O)[C@H]1C(=O)N2C(C(=O)O)=C(S[C@@H]3CN[C@H](C(=O)N(C)C)C3)[C@H](C)[C@H]12` [Meropenem], the MIC [2, 10] was > 16 mg/L, the MIC ([2]; Table 8, clinical isolate 92) was > 16 mg/L and the MIC ([2]; Table 8, clinical isolate 109) was > 16 mg/L. For the same compound, the MIC ([2]; Table 8, clinical isolate 113) was > 16 mg/L, the MIC ([2]; Table 8, clinical isolate 116) was > 16 mg/L and the MIC ([2]; Table 8, clinical isolate 118) was > 16 mg/L. The MIC ([2]; Table 8, clinical isolate 136) was > 16 mg/L, the MIC ([2]; Table 8, clinical isolate 170) was > 32 mg/L and the MIC ([2]; Table 8, clinical isolate 256) was 4 mg/L (≈ 10.4 µM). For the same compound, the MIC [2, 11] was > 6 mg/L, the MIC ([2]; Table 8, clinical isolate 265) was > 64 mg/L and the MIC ([2]; Table 8, clinical isolate 280) was > 64 mg/L. For the same compound, the MIC ([2]; Table 8, clinical isolate 281) was > 64 mg/L, the MIC ([2]; Table 8, clinical isolate 284) was > 64 mg/L and the MIC ([2]; Table 8, clinical isolate 286) was > 64 mg/L. The MIC ([2]; Table 8, clinical isolate 328) was > 16 mg/L, the MIC ([2]; Table 8, clinical isolate 330) was > 16 mg/L and the MIC ([2]; Table 8, clinical isolate 361) was > 16 mg/L. The MIC ([2]; Table 8, clinical isolate 365) was > 16 mg/L, the MIC ([2]; Table 8, clinical isolate 399) was > 16 mg/L and the MIC [2, 12] was > 16 mg/L. For the same compound, the MIC ([2]; Table 11, clinical isolate 92) was > 16 mg/L, the MIC ([2]; Table 11, clinical isolate 116) was > 16 mg/L and the MIC ([2]; Table 11, clinical isolate 118) was > 16 mg/L. The MIC ([2]; Table 11, clinical isolate 136) was > 16 mg/L, the MIC ([2]; Table 11, clinical isolate 170) was > 32 mg/L and the MIC ([2]; Table 11, clinical isolate 256) was 4 mg/L (≈ 10.4 µM). For the same compound, the MIC [2, 13] was ≥ 64 mg/L, the MIC ([2]; Table 11, clinical isolate 265) was ≥ 64 mg/L and the MIC ([2]; Table 11, clinical isolate 280) was ≥ 64 mg/L. The MIC ([2]; Table 11, clinical isolate 281) was > 64 mg/L, the MIC ([2]; Table 11, clinical isolate 284) was ≥ 64 mg/L and the MIC ([2]; Table 11, clinical isolate 286) was ≥ 64 mg/L. The MIC ([2]; Table 11, clinical isolate 328) was ≥ 16 mg/L, the MIC ([2]; Table 11, clinical isolate 330) was ≥ 16 mg/L and the MIC ([2]; Table 11, clinical isolate 361) was ≥ 16 mg/L. For the same compound, the MIC ([2]; Table 11, clinical isolate 365) was ≥ 16 mg/L, the MIC ([2]; Table 11, clinical isolate 399) was ≥ 16 mg/L and the MIC [2, 14] was > 16 mg/L.
